Results as given in patent US9150845B2, “Lyase enzymes, nucleic acids encoding them and methods for making and using them” (BASF ENZYMES LLC, priority 2005, dated 2015).

B1: SEQ ID NO:236: polypeptide encoded by SEQ ID NO:235, initially isolated from Pseudomonas fluorescens PfO-1 (protein)
chain: MITIRGEGLTIAQIAAVARGAPVRMTDDEAVLARVRASRQRIVEALESGQQIYGVTTLYGGMADRVVPADRLEALQRVSLWHHKVGAGPRLPVPDVRAAMLLRANSLLKGASGVRVELVERYVAFLNAGATPHVYQRGSIGASGDLSPLAYIGAAVIGLDRAWLVDLGEETLDCLTVLRRLGLEPMILQPKEGLALCNGTAASTGVAANCIERAFALTALALGTHALYFQALDATTQSFEPFVHALKPHPGQVWTAREMAALLDGSGLVRSEAAGDRAHRRGGLIQDRYSLRCMPQFVGPIVDGLAEAARQIEIEANSANDNPLIDPETGEVFHTGNFLAEYTAVAMDRLRYHLGMLAKHLDTQIALLVAPEFSRGLSPSLAGNLEPGLNVGLKSLQISCNSLMPLLTFYGQSMADRFPTHAEQFNQNINSQAMNGANLARDSVEVLAHFMANALVFAVQAVELRAWLVAGTYDASEVLSPATRPLYAAARAAAAGPPGPHRPLVWNDTDGFLEDKVRGVMSSILEGGAVPEAVAPVRERLRAHRG
modifications: Obtained from environmental sample; DOMAIN (1)...(492): Phenylalanine and histidine ammonia-lyase; SITE (140)...(156): Phenylalanine and histidine ammonia-lyases signature. Prosite id = PS00488; SITE (201)...(204): N-glycosylation site. Prosite id = PS00001; SITE (514)...(517): N-glycosylat
B2: SEQ ID NO:2: polypeptide encoded by SEQ ID NO:1, initially isolated from Tannerella forsythensis ATCC 43037 (protein)
chain: MEKTVTYQSEKGFSIHDVERLLLGQSHLKLSAESLQKVERCFIFLREFSTDKVIYGINTGFGPMAQYRVDDNCLKQLQYNIIRSHSTGAGEPLDPIYVKAAMIARLSTFLQGYSGIHTDLVRLLTEFINRDICPFIPEHGSVGASGDLVQLAHIALTLIGEGEVFYEGKRRPTAEVMQKEKLSPLDIYIREGLSATNGTSVMTGIGLVNLIYAKRLLHWSIAASVMMNEIASSYDDLMSPGLNATKRHEGQQEIARAMCRWAAGSKAMRKREIEMFQRHTEKVFGHKVQAYYSLRCVPQILGPIWDTMAYAEKVLVDELNSACDNPIVDPEAQYVYHGGNFHGDYISFEMDKLKIAVTKMTMLAERQLNYLFHNRINDDILPPFVNLGVLGLNYGLQAAQFTATSTTAECQTLSNPMYIHSIPNNNDNQDIVSMGANAALMAKTVIENGYQVMAIHFMALVQAVDYLKLQPRMAEKTRAVYDEIRAFFPVFTDDTPKYREIETMITYLKSSGKRI
modifications: Tannerella forsythensis ATCC 43037; DOMAIN (4)...(493): Phenylalanine and histidine ammonia-lyase

What was measured:
[1] = system: DH5α host; experiment: Ammonia selection (growth with amino acid substrate, host + vector); assay type: cell-based; conditions: substrate tested
From the text: (§1) An exemplary activity-based discovery protocol comprises use of an ammonia selection using α-methylPhe to screen environmental libraries. […] A phenylalanine selection screen was also implemented to screen libraries, e.g., environmental libraries—which yielded, inter alia, chorismate mutases (CM), which complement a PheA mutation in the auxotroph screening host. An adamantyl phosphonate, an inhibitor of CM activity, also was used to determine whether can minimize background CM activity in this selection/screening protocol.

[2] = system: chorismate mutases (CM); experiment: Phenylalanine selection screen: suppression of background chorismate mutase activity; assay type: cell-based; conditions: PheA auxotroph screening host
From the text: as §1

[3] = Activity assignment of exemplary polypeptides (Table 1, assays of Examples 1, 2 and 3); assay type: biochemical; conditions: Table 1 (FIG. 8)
From the text: Table 1, presented as FIG. 8, details an exemplary activity determined for each exemplary polypeptide of the invention (and, also notes one exemplary nucleic acid of the invention that encodes the exemplary polypeptide; as determined by the assays described in Examples 1, 2 and 3, below. Table 1 also sets forth the source organism from which the polynucleotide was isolated (where “unknown” means that the source was an environmental sample), the GenBank accession number of the top BLAST hit, the organism from which the top BLAST hit was isolated, the percent sequence identity between the polypeptide of the invention and the top BLAST hit, the activity assigned to the top BLAST hit, and notes for that particular polynucleotide/polypeptide entry. […]
HAL enzyme activity can be determined as described in Baedeker & Schulz (Eur. J. Biochem 2002, 269, 1790-1797), wherein enzyme activity was determined as the rate of urocanate formation, measured spectrophotometrically at 277 nm. […] The reaction was started by adding 200 μL of 0.5 M histidine solution and then monitored for approximately 5 minutes.
In one aspect, PAL enzyme activity can be determined as described in Rother & Retey (Eur. J. Biochem, 2002, 269, 3065-3075), by following the formation of E-cinnamate spectrophotometrically at 30° C. at 290 nm. […] Kinetic constants were determined using a double reciprocal plot. […]

Row | Molecule | background growth with negative control (host+empty vector) [1] | further results
1 | N[C@@H](Cc1ccccc1Br)C(=O)O [2-BromoPhe, 2-Bromo-L-phenylalanine] | background growth | 
2 | N[C@@H](Cc1ccccc1Cl)C(=O)O [2-ChloroPhe, 2-Chloro-L-phenylalanine] | background growth | 
3 | N[C@@H](Cc1ccccc1)C(=O)O [Phe, phenylalanine] | background growth | 
4 | C[C@](N)(Cc1ccccc1)C(=O)O [α-methylPhe, α-methylphenylalanine] | no background growth | 
5 | adamantyl phosphonate |  | inhibition of background CM activity in selection/screening protocol [2]: lack of potency
6 | B1 |  | exemplary activity determined for the polypeptide [3]: esterase activity
7 | B2 |  | exemplary activity determined for the polypeptide [3]: TAL and PAL activity
